What was measured:
[1] = tested on: Cochliobolus sativus (COCHSA); assay: Fungicidal activity, spot blotch of barley (COCHSA), greenhouse barley plants; assay type: in vivo; details: One-Day Protectant, barley (variety Harrington)
Protocol: Spot Blotch of Barley (Cochliobolus sativus: anamorph Helmithosporium sativum; Bayer code COCHSA): Barley plants (variety Harrington) were grown from seed in a greenhouse in soil-less Metro mix until the first leaf was fully emerged, with 7-10 seedlings per pot. These plants were inoculated with an aqueous spore suspension of COCHSA prior to fungicide treatments. After inoculation the plants were kept in 100% relative humidity one day to permit spores to germinate and infect the leaf. The plants were then transferred to a greenhouse for disease to develop. The following table presents the activity of typical compounds of the present disclosure when evaluated in these experiments. The effectiveness of the test compounds in controlling disease was determined by assessing the severity of disease on treated plants, then converting the severity to percent control based on the level of disease on untreated, inoculated plants. • In each case of Table II the rating scale is as follows: […]

[2] = tested on: Mycosphaerella graminicola; anamorph: Septoria tritici (SEPTTR); assay: Fungicidal activity, leaf blotch of wheat (SEPTTR), greenhouse wheat plants; assay type: in vivo; details: wheat (variety Yuma)
Protocol: Leaf Blotch of Wheat (Mycosphaerella graminicola; anamorph: Septoria tritici; Bayer code […]): Wheat plants (variety Yuma) were grown from seed in a greenhouse in 50% mineral soil/50% soil-less Metro mix until the first leaf was fully emerged, with 7-10 seedlings per pot. These plants were inoculated with an aqueous spore suspension of […] either prior to or after fungicide treatments. After inoculation the plants were kept in 100% relative humidity (one day in a dark dew chamber followed by two to three days in a lighted dew chamber) to permit spores to germinate and infect the leaf. The plants were then transferred to a greenhouse for disease to develop. The following table presents the activity of typical compounds of the present disclosure when evaluated in these experiments. The effectiveness of the test compounds in controlling disease was determined by assessing the severity of disease on treated plants, then converting the severity to percent control based on the level of disease on untreated, inoculated plants. • In each case of Table II the rating scale is as follows: […]

[3] = tested on: Puccinia recondita f. sp. tritici (PUCCRT); assay: Fungicidal activity, wheat leaf rust (PUCCRT), greenhouse wheat plants; assay type: in vivo; details: One-Day Protectant, wheat (variety Yuma)

melting point: 173 to 177 °C
Structure (SMILES): CC(C)C1C2CCC1c1c(NC(=O)c3nccnc3C(F)(F)F)cccc12 (centres unmarked) [Compound 9, 3-Trifluoromethyl-pyrazine-2-carboxylic acid (9-isopropyl-1,2,3,4-tetrahydro-1,4-methano-naphthalen-5-yl)-amide]
COCHSA 200 PPM 1DP (disease control rating) [1]: A (76-100) | SEPTTR 200 PPM 1DP (disease control rating) ([2]; One-Day Protectant): A (76-100) | SEPTTR 200 PPM 3DC (disease control rating) ([2]; Three-Day Curative): B (51-75) | PUCCRT 200 PPM 1DP (disease control rating) [3]: A (76-100)

From patent US8859558B2, “Pyrazinyl carboxamides as fungicides” (Dow AgroSciences, LLC., priority 2010, dated 2014)
